Data taken from paper PMC7997574, “Lead Optimization of Benzoxazolone Carboxamides as Orally Bioavailable and CNS Penetrant Acid Ceramidase Inhibitors” (Journal of Medicinal Chemistry, 2020).

Key:
[1] = molecular target: T1, acid sphingomyelinase (ASM) (Homo sapiens, UniProt P17405); assay: In vitro hASM assay; format: biochemical; details: 1 and 10 μM
T1 construct: 1.3 nM purified human full-length ASM enzyme (purified in house); made in house
T1 sequence (P17405 47-631): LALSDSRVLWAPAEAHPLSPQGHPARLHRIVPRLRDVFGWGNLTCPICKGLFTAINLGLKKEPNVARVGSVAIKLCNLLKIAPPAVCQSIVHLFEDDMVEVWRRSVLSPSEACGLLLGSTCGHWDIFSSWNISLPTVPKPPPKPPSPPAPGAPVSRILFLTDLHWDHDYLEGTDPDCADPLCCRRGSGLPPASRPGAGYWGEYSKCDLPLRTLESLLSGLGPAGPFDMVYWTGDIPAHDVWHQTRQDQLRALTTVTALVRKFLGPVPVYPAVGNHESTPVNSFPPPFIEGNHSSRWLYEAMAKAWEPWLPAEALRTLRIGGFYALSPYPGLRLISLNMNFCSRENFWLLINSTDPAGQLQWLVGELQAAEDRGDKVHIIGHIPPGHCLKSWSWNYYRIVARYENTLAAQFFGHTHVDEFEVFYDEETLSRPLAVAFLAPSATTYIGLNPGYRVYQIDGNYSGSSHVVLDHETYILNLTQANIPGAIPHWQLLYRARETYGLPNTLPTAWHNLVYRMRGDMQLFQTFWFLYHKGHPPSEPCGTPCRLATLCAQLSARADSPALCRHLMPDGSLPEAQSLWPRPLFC
Protocol: hASM activity measurement was conducted using the fluorogenic substrate 6-hexadecanoylamino-4-methylumbelliferylphosphorylcholine (HMU-PC, Toronto Research Chemicals) at 0.5 μM and 1.3 nM purified human full-length ASM enzyme (purified in house) in a buffer containing 50 mM citrate, 150 mM NaCl, 5 mM ZnCl2, and 0.43 mM Triton X-100 at pH 4.7 in a final volume of 50 μL. The reaction mixtures were incubated for 45 min at rt and stopped by the addition of 150 μL of 1 M glycine at pH 12.5. The formation of the fluorescent product was monitored by a plate reader at excitation/emission wavelengths of 385/450 nm. The average hASM activity was calculated from two independent experiments, each performed in two technical replicates.

[2] = Maximum tolerated dose (MTD) study in C57BL/6 mice; format: in vivo, mouse; details: i.p. dose escalation 20, 40, 80, 120 mg kg^–1 over 4 days
Protocol: An MTD study was conducted on male C57BL/6 mice (15–19 g, 5 weeks old, SLAC Laboratory Animal Co. Ltd.). Animals were injected via intraperitoneal (i.p.) injection with single administration at 20 mg kg^–1 (N = 18, vehicle: 100% saline at 0.6 mg mL^–1) and multiple administrations for a duration of 4 days at 20 (N = 18, day 1), 40 (N = 18, day 2), 80 (N = 18, day 3), and 120 mg kg^–1 (N = 18, day 4). Clinical observations/samples of plasma, CSF, and brain were collected at 0.25, 0.5, 1, 4, 8, and 24 h. All procedures were performed in accordance with the Ethical Guidelines on the Protection of Animals Used for Scientific Purposes at the DMPK Group at Shanghai ChemPartner Co., Ltd.

[3] = molecular target: T2, monoacylglycerol lipase (MAGL) (Homo sapiens, UniProt Q99685); assay: In vitro hMAGL colorimetric assay; format: biochemical; details: 1 and 10 μM
T2 construct: purchased Cayman Scientific item; 705192
T2 sequence (Q99685 1-303): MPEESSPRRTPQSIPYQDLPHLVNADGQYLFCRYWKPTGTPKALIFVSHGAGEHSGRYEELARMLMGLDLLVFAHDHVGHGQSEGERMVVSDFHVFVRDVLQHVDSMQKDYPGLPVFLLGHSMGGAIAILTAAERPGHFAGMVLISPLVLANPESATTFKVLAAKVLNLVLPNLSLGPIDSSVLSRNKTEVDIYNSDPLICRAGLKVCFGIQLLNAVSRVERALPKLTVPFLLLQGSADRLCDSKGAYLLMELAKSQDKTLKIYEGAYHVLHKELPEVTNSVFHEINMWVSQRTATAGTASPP
Protocol: The colorimetric assay to measure hMAGL activity was performed using an assay kit provided by Cayman Scientific (item. 705192), according to the manufacturer’s instructions. Briefly, in vitro activity was measured in 96-well plates, and DMSO was used as solvent. 10 μL of DMSO (100% initial activity wells: 100% IA) or compounds at two concentrations (1 and 10 μM) were preincubated for 5 min at rt with 150 μL of diluted assay buffer (10 mM Tris HCl, pH 7.2, containing 1 mM EDTA) containing hMAGL. In blank wells, 160 μL of the diluted assay buffer and 10 μL of DMSO were added. The reactions were initiated by adding 10 μL of MAGL substrate to all the wells, and plates were incubated for 10 min at rt. Absorbance values were measured at 405 nm, and percent inhibition was calculated by the following method: 100 – (Inhibitor/100% IA) × 100. The reported percentages of inhibition are the mean of at least three independent experiments performed in three technical replicates.

CC(C)CNC(=O)n1c(=O)oc2cc(C3CCN(C)CC3)ccc21 [22m, N-Isobutyl-6-(1-methyl-4-piperidyl)-2-oxo-1,3-benzoxazole-3-carboxamide]
effect on activity of ASM [1]: no effect | clinical observations in MTD study [2]: no clinical abnormalities were observed | effect on MAGL [3]: no effect
